Here are results for 21 molecules from PubChem BioAssay AID330 (DTP/NCI, 2004).

“And” between values parts separate entries of the source, which are not always exact repeats. Identical values can stand only once. Toxic doses and inconclusive results are not listed.

The experiment relates to P388 leukemia ip, CD2F1 mice, survival T/C. The experiment in a line: NCI In Vivo Anticancer Drug Screen. Data for tumor model P388 Leukemia (intraperitoneal) in CD2F1 (CDF1) mice. The settings on record: endpoint: median survival time, higher = longer survival. Summed up: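 Mice carrying the transplanted tumor received test compound or vehicle. Survival was recorded in each group, and the value is the treated-group measurement divided by that of the vehicle-treated control group.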

Setting [1] is: dose: 25.0 mg/kg/injection, schedule: Q01DX009 (ip), vehicle: saline with Tween-80.
Where [2] appears, read: dose: 50.0 mg/kg/injection, schedule: Q01DX009 (ip), vehicle: saline with Tween-80.
The mark [3] stands for this setting: dose: 200.0 mg/kg/injection, schedule: Q01DX009 (ip), vehicle: saline with Tween-80.
Setting [4] is: dose: 60.0 mg/kg/injection, schedule: Q01DX005 (ip), vehicle: saline with Tween-80.
Where [5] appears, read: dose: 120.0 mg/kg/injection, schedule: Q01DX005 (ip), vehicle: saline with Tween-80.
[6] abbreviates: dose: 240.0 mg/kg/injection, schedule: Q01DX005 (ip), vehicle: saline with Tween-80.
The mark [7] stands for this setting: dose: 50.0 mg/kg/injection, schedule: Q01DX009 (ip), vehicle: saline.
[8] abbreviates: dose: 100.0 mg/kg/injection, schedule: Q01DX009 (ip), vehicle: saline.
[9] abbreviates: dose: 50.0 mg/kg/injection, schedule: Q01DX005 (ip), vehicle: saline with Tween-80.
Where [10] appears, read: dose: 100.0 mg/kg/injection, schedule: Q01DX005 (ip), vehicle: saline with Tween-80.
Setting [11] is: dose: 12.5 mg/kg/injection, schedule: Q01DX005 (ip), vehicle: saline with Tween-80.
The mark [12] stands for this setting: dose: 25.0 mg/kg/injection, schedule: Q01DX005 (ip), vehicle: saline with Tween-80.
Where [13] appears, read: dose: 200.0 mg/kg/injection, schedule: Q01DX005 (ip), vehicle: saline with Tween-80.

For the molecule `CC1C(=O)OC(C(O)C(C)(O)C2C(O)CC3C4CC5OC56C(O)C=CC(=O)C6(C)C4CCC32C)C1C` (stereo not given), the T/C by setting is: (dose: 1.25 mg/kg/injection, schedule: Q01DX009 (ip), vehicle: Klucel (hydroxypropylcellulose) (HPC)) 108 % of control; (dose: 2.5 mg/kg/injection, schedule: Q01DX009 (ip), vehicle: Klucel (hydroxypropylcellulose) (HPC)) 103 % of control; (dose: 5.0 mg/kg/injection, schedule: Q01DX009 (ip), vehicle: Klucel (hydroxypropylcellulose) (HPC)) 105 % of control; (dose: 10.0 mg/kg/injection, schedule: Q01DX009 (ip), vehicle: Klucel (hydroxypropylcellulose) (HPC)) 108 % of control.
`Cc1cccc(C)c1NC(=O)CCC(=O)C(C)C(=O)c1ccc(O)cc1` (stereo not given): the T/C is 100 % of control (dose: 100.0 mg/kg/injection, schedule: Q01DX001 (ip), vehicle: saline with Tween-80); 100 % of control (dose: 200.0 mg/kg/injection, schedule: Q01DX001 (ip), vehicle: saline with Tween-80); 97 % of control (dose: 400.0 mg/kg/injection, schedule: Q01DX001 (ip), vehicle: saline with Tween-80).
As for `CN1C(=O)N(C)C(O)(/C=C/c2c(Cl)cccc2Cl)N(C)C1=O`, the T/C is 106 % of control and 92 % of control under setting [1]; 94 % of control and 96 % of control under setting [2]; 93 % of control and 96 % of control (dose: 100.0 mg/kg/injection, schedule: Q01DX009 (ip), vehicle: saline with Tween-80); 89 % of control and 91 % of control under setting [3].
For `CC(=O)C(=N/O)/C(C)=N/NC(=O)c1ccncc1`, the T/C (dose: 100.0 mg/kg/injection, schedule: Q04DX002 (ip), vehicle: saline) is 106 % of control; the T/C (dose: 200.0 mg/kg/injection, schedule: Q04DX002 (ip), vehicle: saline) was 103 % of control; the T/C (dose: 400.0 mg/kg/injection, schedule: Q04DX002 (ip), vehicle: saline) was 102 % of control.
As to `COc1ccc(-c2cc(-c3cc(-c4ccc(OC)cc4)on3)no2)cc1`, the T/C is, setting by setting: (dose: 60.0 mg/kg/injection, schedule: Q01DX005 (ip), vehicle: saline) 100 % of control; (dose: 120.0 mg/kg/injection, schedule: Q01DX005 (ip), vehicle: saline) 92 % of control; (dose: 240.0 mg/kg/injection, schedule: Q01DX005 (ip), vehicle: saline) 97 % of control.
Take `COC(=O)c1cc(-c2ccco2)c2c(=O)n(-c3ccccc3)[nH]c2n1`: the T/C is, setting by setting: under setting [4], 103 % of control; under setting [5], 105 % of control; under setting [6], 94 % of control.
For the molecule `CCCCCCCN(CCCCCCC)CC(O)c1cc2ccc(Cl)cc2nc1-c1ccc(Cl)cc1` (stereo not given), the T/C reads like this: (dose: 100.0 mg/kg/injection, schedule: Q01DX001 (ip), vehicle: saline sonified) 90 % of control; (dose: 200.0 mg/kg/injection, schedule: Q01DX001 (ip), vehicle: saline sonified) 90 % of control; (dose: 400.0 mg/kg/injection, schedule: Q01DX001 (ip), vehicle: saline sonified) 104 % of control.
With `CCOCN(COCC)c1ccc(Cl)cc1`, the T/C under setting [3] is 164 % of control.
Turning to `O=[N+]([O-])c1nccn1CC(O)CO` (stereo not given), the T/C (dose: 12.5 mg/kg/injection, schedule: Q01DX009 (ip), vehicle: saline) was 103 % of control and 116 % of control; the T/C (dose: 25.0 mg/kg/injection, schedule: Q01DX009 (ip), vehicle: saline) is 101 % of control and 121 % of control; the T/C under setting [7] was 103 % of control and 116 % of control and 98 % of control; the T/C under setting [8] is 102 % of control and 106 % of control and 116 % of control; the T/C (dose: 200.0 mg/kg/injection, schedule: Q01DX009 (ip), vehicle: saline) was 104 % of control and 107 % of control and 121 % of control; the T/C (dose: 360.0 mg/kg/injection, schedule: Q01DX001 (ip), vehicle: saline) was 101 % of control and 102 % of control. Moreover, the T/C (dose: 400.0 mg/kg/injection, schedule: Q01DX009 (ip), vehicle: saline) was 102 % of control and 106 % of control; the T/C (dose: 600.0 mg/kg/injection, schedule: Q01DX001 (ip), vehicle: saline) is 100 % of control and 102 % of control; the T/C (dose: 1000.0 mg/kg/injection, schedule: Q01DX001 (ip), vehicle: saline) is 101 % of control and 104 % of control.
Take `COc1ccc(OC)c(NC(=O)CCCC(=O)CC(=O)C(C)(C)C)c1`: the T/C runs as follows: under setting [4], 101 % of control; under setting [5], 104 % of control; under setting [6], 93 % of control.
For the molecule `CC1=NN(c2cc(S(=O)(=O)O)ccc2Cl)C(=O)C1N=Nc1ccccc1` (stereo not given), the T/C runs as follows: under setting [7], 105 % of control; under setting [8], 89 % of control.
Take `O=C(NO)/C(CC(=O)c1ccc(O)cc1)=N\O`: the T/C under setting [4] is 104 % of control, the T/C under setting [5] was 101 % of control and the T/C under setting [6] is 105 % of control.
In the case of `NC(=O)C(Br)(Br)C(=O)c1nc(N)nc(N)n1`, the T/C reads like this: under setting [9], 107 % of control; under setting [10], 99 % of control.
Regarding `CSc1nc(N)c(C(=O)N2CCCCC2)s1`, the T/C (dose: 50.0 mg/kg/injection, schedule: Q01DX009 (ip), vehicle: Klucel (hydroxypropylcellulose) (HPC)) was 100 % of control; the T/C (dose: 100.0 mg/kg/injection, schedule: Q01DX009 (ip), vehicle: Klucel (hydroxypropylcellulose) (HPC)) is 100 % of control; the T/C (dose: 200.0 mg/kg/injection, schedule: Q01DX009 (ip), vehicle: Klucel (hydroxypropylcellulose) (HPC)) was 89 % of control.
As for `O=C(/C=C/c1ccccc1[N+](=O)[O-])c1ccccc1`, the T/C runs as follows: (dose: 50.0 mg/kg/injection, schedule: Q04DX003 (ip), vehicle: saline with Tween-80) 99 % of control; (dose: 100.0 mg/kg/injection, schedule: Q04DX003 (ip), vehicle: saline with Tween-80) 101 % of control; (dose: 200.0 mg/kg/injection, schedule: Q04DX003 (ip), vehicle: saline with Tween-80) 101 % of control; (dose: 400.0 mg/kg/injection, schedule: Q04DX003 (ip), vehicle: saline with Tween-80) 108 % of control.
In the case of `CCN(CC)C/C(C)=C(/c1ccccc1)c1ccccc1S(N)(=O)=O`, the T/C by setting is: (dose: 100.0 mg/kg/injection, schedule: Q01DX001 (ip), vehicle: Klucel (hydroxypropylcellulose) (HPC)) 116 % of control; (dose: 200.0 mg/kg/injection, schedule: Q01DX001 (ip), vehicle: Klucel (hydroxypropylcellulose) (HPC)) 111 % of control.
With `COc1ccc(Cc2cc3c(cc2OCC(=O)Nc2ccccn2)OCO3)cc1`, the T/C was 92 % of control (dose: 6.25 mg/kg/injection, schedule: Q01DX005 (ip), vehicle: saline with Tween-80); 90 % of control under setting [11]; 86 % of control under setting [12]; 90 % of control under setting [10]; 90 % of control under setting [13].
For `Cc1ccc(S(=O)(=O)OC2C(OCc3ccccc3)OCC(O)C2O)cc1` (stereo not given), the T/C under setting [9] is 102 % of control, the T/C under setting [10] was 100 % of control and the T/C under setting [13] was 100 % of control.
Turning to `Cc1c2c(cc3c1[nH]c1ccccc13)C(=O)c1ccccc1C2=O`, the T/C was 94 % of control under setting [11]; 95 % of control under setting [12]; 92 % of control and 94 % of control under setting [9]; 87 % of control under setting [13].
For the molecule `CCOc1ccccc1N=Nc1c(C)nc(N)nc1OCC`, the T/C (dose: 60.0 mg/kg/injection, schedule: Q01DX005 (ip), vehicle: Klucel (hydroxypropylcellulose) (HPC)) is 100 % of control; the T/C (dose: 120.0 mg/kg/injection, schedule: Q01DX005 (ip), vehicle: Klucel (hydroxypropylcellulose) (HPC)) is 110 % of control; the T/C (dose: 240.0 mg/kg/injection, schedule: Q01DX005 (ip), vehicle: Klucel (hydroxypropylcellulose) (HPC)) is 110 % of control.
On to `Cc1cc(N(CCCl)CCCl)ccc1C=Nc1ccccc1C(=O)O`, for which the T/C reads like this: under setting [1], 117 % of control; under setting [2], 115 % of control; under setting [3], 150 % of control.
